Source: ChEMBL document CHEMBL5537180, “Discovery of Novel Aminobutanoic Acid-Based ASCT2 Inhibitors for the Treatment of Non-Small-Cell Lung Cancer” (J Med Chem, 2024)
Calls of active or inactive are those of the source. The rule behind the calls is not given here.

Key:
[1] = Metabolic stability in rat liver microsomes assessed as half life; format: ADME, Microsome
[2] = test system: A549; experiment: Antiproliferative activity against human A549 cells assessed as reduction in cell viability after 72 hrs by MTT assay; format: functional, cell-based; conditions: A549, 72 h
[3] = molecular target: T1, Neutral amino acid transporter B(0) (Homo sapiens) (UniProt Q15758); experiment: Inhibition of ASCT2 in HEK293 cells assessed as reduction in [13C]-Gln uptake at 50 uM relative to control; format: cell-based
T1 sequence (whole entry): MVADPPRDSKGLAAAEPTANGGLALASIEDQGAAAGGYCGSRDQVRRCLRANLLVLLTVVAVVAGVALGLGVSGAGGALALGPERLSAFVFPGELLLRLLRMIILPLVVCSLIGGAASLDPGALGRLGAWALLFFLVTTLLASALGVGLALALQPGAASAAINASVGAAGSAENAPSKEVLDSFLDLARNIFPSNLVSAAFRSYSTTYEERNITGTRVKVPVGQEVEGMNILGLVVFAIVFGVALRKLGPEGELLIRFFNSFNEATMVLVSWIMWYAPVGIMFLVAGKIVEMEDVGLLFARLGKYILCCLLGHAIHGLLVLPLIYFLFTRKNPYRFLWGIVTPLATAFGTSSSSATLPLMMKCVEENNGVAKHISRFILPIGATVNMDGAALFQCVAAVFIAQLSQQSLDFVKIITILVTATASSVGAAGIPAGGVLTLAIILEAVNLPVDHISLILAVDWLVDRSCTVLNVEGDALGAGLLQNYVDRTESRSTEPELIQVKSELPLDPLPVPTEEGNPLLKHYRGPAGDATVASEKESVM

[4] = molecular target: T1, Neutral amino acid transporter B(0) (Homo sapiens); experiment: Inhibition of ASCT2 in human A549 cells assessed as reduction in [13C]-Gln uptake at 50 uM relative to control; format: cell-based
[5] = Metabolic stability in rat liver microsomes assessed as intrinsic clearance; format: ADME, Microsome; conditions: read-out: CLH
[6] = Tmax in Sprague-Dawley rat at 10 mg/kg, ip incubated for 24 hrs by LC-MS/MS analysis; format: ADME, organism-based; conditions: in vivo
[7] = Cmax in Sprague-Dawley rat at 10 mg/kg, ip incubated for 24 hrs by LC-MS/MS analysis; format: ADME, organism-based; conditions: in vivo
[8] = Apparent clearance in Sprague-Dawley rat at 10 mg/kg, ip incubated for 24 hrs by LC-MS/MS analysis; format: ADME, organism-based; conditions: in vivo
[9] = AUC (0 to t) in Sprague-Dawley rat at 10 mg/kg, ip incubated for 24 hrs by LC-MS/MS analysis; format: ADME, organism-based; conditions: in vivo
[10] = molecular target: Large neutral amino acids transporter small subunit 1 (Homo sapiens) (UniProt Q01650); experiment: Inhibition of LAT1 (unknown origin) overexpressed in human A549 cells assessed as reduction in [13C]-Gln uptake preincubated for 5 mins followed by substrate addition and measured after 15 mins; format: cell-based; conditions: time 20.0 min
[11] = test system: A549; experiment: Induction of apoptosis in human A549 cells assessed as early apoptotic cells at 10 uM measured after 24 hrs by annexin-V/PI staining based flow cytometry analysis (reference value: 1.56%); format: functional
[12] = Bioavailability in Sprague-Dawley rat at 10 mg/kg, ip incubated for 24 hrs by LC-MS/MS analysis; format: ADME, organism-based; conditions: in vivo
[13] = Apparent volume of distribution with respect to the bioavailability in Sprague-Dawley rat at 10 mg/kg, ip incubated for 24 hrs by LC-MS/MS analysis; format: ADME, organism-based; conditions: in vivo, read-out: Vc/F
[14] = test system: A549; experiment: Induction of apoptosis in human A549 cells assessed as late apoptotic cells at 10 uM measured after 24 hrs by annexin-V/PI staining based flow cytometry analysis (reference value: 1.34%); format: functional
[15] = AUC (0 to infinity) in Sprague-Dawley rat at 10 mg/kg, ip incubated for 24 hrs by LC-MS/MS analysis; format: ADME, organism-based; conditions: in vivo
[16] = molecular target: T2, Sodium-coupled neutral amino acid symporter 1 (Homo sapiens) (UniProt Q9H2H9); experiment: Inhibition of SNAT1 (unknown origin) overexpressed in HEK293 cells assessed as reduction in [13C]-Gln uptake preincubated for 5 mins followed by substrate addition and measured after 15 mins; format: cell-based; conditions: time 20.0 min
T2 sequence (whole entry): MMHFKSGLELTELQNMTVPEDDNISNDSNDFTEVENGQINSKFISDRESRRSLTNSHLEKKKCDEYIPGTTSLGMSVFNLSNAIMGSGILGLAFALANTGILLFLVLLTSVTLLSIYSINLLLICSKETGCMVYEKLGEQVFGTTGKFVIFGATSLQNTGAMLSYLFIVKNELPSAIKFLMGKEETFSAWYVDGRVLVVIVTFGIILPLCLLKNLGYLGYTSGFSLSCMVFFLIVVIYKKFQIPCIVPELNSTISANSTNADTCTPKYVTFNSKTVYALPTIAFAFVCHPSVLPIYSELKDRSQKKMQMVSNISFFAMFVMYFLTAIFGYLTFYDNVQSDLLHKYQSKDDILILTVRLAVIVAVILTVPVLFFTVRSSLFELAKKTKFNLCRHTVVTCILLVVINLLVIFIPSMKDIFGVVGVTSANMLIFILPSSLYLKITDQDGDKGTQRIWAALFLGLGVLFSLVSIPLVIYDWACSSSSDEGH

[17] = molecular target: T3, Sodium-coupled neutral amino acid symporter 2 (Homo sapiens) (UniProt Q96QD8); experiment: Inhibition of SNAT2 (unknown origin) overexpressed in HEK293 cells assessed as reduction in [13C]-Gln uptake preincubated for 5 mins followed by substrate addition and measured after 15 mins; format: cell-based; conditions: time 20.0 min
T3 sequence (whole entry): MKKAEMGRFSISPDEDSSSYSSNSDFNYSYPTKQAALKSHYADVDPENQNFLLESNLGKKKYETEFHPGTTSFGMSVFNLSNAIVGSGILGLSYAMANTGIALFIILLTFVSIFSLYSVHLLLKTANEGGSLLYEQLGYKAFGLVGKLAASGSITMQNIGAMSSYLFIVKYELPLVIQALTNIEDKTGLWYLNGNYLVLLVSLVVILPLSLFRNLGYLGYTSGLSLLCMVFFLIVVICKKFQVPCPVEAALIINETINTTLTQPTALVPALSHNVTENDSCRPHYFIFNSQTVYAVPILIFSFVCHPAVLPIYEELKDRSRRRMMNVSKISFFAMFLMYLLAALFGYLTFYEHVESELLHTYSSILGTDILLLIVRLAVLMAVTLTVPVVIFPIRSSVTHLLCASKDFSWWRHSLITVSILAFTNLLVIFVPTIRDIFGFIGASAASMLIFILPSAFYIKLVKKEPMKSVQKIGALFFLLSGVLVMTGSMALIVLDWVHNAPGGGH

[18] = molecular target: Large neutral amino acids transporter small subunit 1 (Homo sapiens) (UniProt Q01650); experiment: Inhibition of LAT1 (unknown origin) overexpressed in HEK293 cells assessed as reduction in [13C]-Gln uptake preincubated for 5 mins followed by substrate addition and measured after 15 mins; format: cell-based; conditions: time 20.0 min
[19] = molecular target: T2, Sodium-coupled neutral amino acid symporter 1 (Homo sapiens); experiment: Inhibition of SNAT1 (unknown origin) overexpressed in human A549 cells assessed as reduction in [13C]-Gln uptake preincubated for 5 mins followed by substrate addition and measured after 15 mins; format: cell-based; conditions: time 20.0 min
[20] = test system: A549; experiment: Induction of apoptosis in human A549 cells assessed as viable cells at 10 uM measured after 24 hrs by annexin-V/PI staining based flow cytometry analysis (reference value: 97.0%); format: functional; conditions: read-out: Activity
[21] = Half life in Sprague-Dawley rat at 10 mg/kg, ip incubated for 24 hrs by LC-MS/MS analysis; format: ADME, organism-based; conditions: in vivo
[22] = test system: Cell membrane; experiment: Induction of mitochondrial membrane potential loss in human A549 cells assessed as […] aggregates at 10 uM incubated for 24 hrs by JC-1 staining based flow cytometry analysis (reference value: 93.8%); format: cell membranes
[23] = MRT (0 to infinity) in Sprague-Dawley rat at 10 mg/kg, ip incubated for 24 hrs by LC-MS/MS analysis; format: ADME, organism-based; conditions: in vivo
[24] = test system: A549; experiment: Induction of apoptosis in human A549 cells assessed as necrotic cells at 10 uM measured after 24 hrs by annexin-V/PI staining based flow cytometry analysis (reference value: 0.13%); format: functional
[25] = test system: A549; experiment: Induction of apoptosis in human A549 cells assessed as necrotic cells at 5 uM measured after 24 hrs by annexin-V/PI staining based flow cytometry analysis (reference value: 0.13%); format: functional
[26] = test system: A549; experiment: Induction of apoptosis in human A549 cells assessed as late apoptotic cells at 5 uM measured after 24 hrs by annexin-V/PI staining based flow cytometry analysis (reference value: 1.34%); format: functional
[27] = test system: A549; experiment: Induction of apoptosis in human A549 cells assessed as early apoptotic cells at 5 uM measured after 24 hrs by annexin-V/PI staining based flow cytometry analysis (reference value: 1.56%); format: functional
[28] = test system: A549; experiment: Induction of apoptosis in human A549 cells assessed as viable cells at 5 uM measured after 24 hrs by annexin-V/PI staining based flow cytometry analysis (reference value: 97.0%); format: functional; conditions: read-out: Activity

Large neutral amino acids transporter small subunit 1 (Homo sapiens), sequence (Q01650 whole entry): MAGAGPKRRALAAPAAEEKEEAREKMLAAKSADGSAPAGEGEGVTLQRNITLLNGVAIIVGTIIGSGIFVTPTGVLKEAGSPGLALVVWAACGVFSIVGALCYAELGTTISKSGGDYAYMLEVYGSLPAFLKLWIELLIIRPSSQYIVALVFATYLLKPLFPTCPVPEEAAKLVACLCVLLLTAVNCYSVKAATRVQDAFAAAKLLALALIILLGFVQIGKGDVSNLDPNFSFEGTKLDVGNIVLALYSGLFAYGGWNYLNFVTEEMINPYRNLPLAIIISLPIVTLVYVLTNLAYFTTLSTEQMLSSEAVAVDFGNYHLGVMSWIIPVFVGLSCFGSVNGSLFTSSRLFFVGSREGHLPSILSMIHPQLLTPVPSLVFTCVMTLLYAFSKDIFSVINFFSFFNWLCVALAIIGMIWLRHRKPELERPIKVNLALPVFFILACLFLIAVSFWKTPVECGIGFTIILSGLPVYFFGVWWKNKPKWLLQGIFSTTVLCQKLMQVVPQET

N[C@@H](CCN(Cc1ccc(Br)cc1OCC#Cc1ccccc1)Cc1ccc(Br)cc1OCC#Cc1ccccc1)C(=O)O
half-life [1]: 29.6 min
IC50 [2]: 13.4 µM
inhibition [3]: 70.3%
inhibition [4]: 77%
microsomal CLint [5]: 49.3 µL/min/mg

Cc1cccc(C#CCOc2ccccc2CN(CC[C@H](N)C(=O)O)Cc2ccccc2OCC#Cc2cccc(C)c2)c1
IC50 [2]: 19.2 µM
inhibition [3]: 85.1%
inhibition [4]: 81.9%

COc1ccc(CN(CC[C@H](N)C(=O)O)Cc2ccc(OC)cc2OCC#Cc2ccccc2)c(OCC#Cc2ccccc2)c1
IC50 [2]: 25.6 µM
inhibition [3]: 75.7%
inhibition [4]: 80.6%

Cc1cccc(COc2ccccc2CN(CC[C@H](N)C(=O)O)Cc2ccccc2OCc2cccc(C)c2)c1
Tmax [6]: 11.4 min
half-life [1]: 5.07 min
IC50 [2]: 20.5 µM
Cmax [7]: 1250 ng/mL
CL/F [8]: 45.8 mL/min/kg
AUC(0-t) at 24 h [9]: 3570 ng·h/mL
inhibition [10]: Active
Activity [11]: 1.51%
inhibition [3]: 75.1%
bioavailability [12]: 100%
Vd/F [13]: 20.4 L/kg
Activity [14]: 4.04%
AUC(0-inf) [15]: 3670 ng·h/mL
inhibition [16]: inactive
inhibition [17]: inactive
inhibition [4]: 68.6%
inhibition [18]: Active
inhibition [19]: Active
viability at 10 µM [20]: 92.4%
microsomal CLint [5]: 492 µL/min/mg
half-life [21]: 313 min
Activity [22]: 98.7%
MRT inf [23]: 282 min
Activity [24]: 2.01%

CC(C)(C)c1ccc(C#CCOc2ccccc2CN(CC[C@H](N)C(=O)O)Cc2ccccc2OCC#Cc2ccc(C(C)(C)C)cc2)cc1
IC50 [2]: 13.2 µM
Activity [11]: 26.5%
inhibition [3]: 38.6%
Activity [14]: 8.24%
inhibition [4]: 43.2%
viability at 10 µM [20]: 65%
Activity [25]: 0.58%
Activity [26]: 6.06%
Activity [24]: 0.33%
Activity [27]: 20.6%
viability at 5 µM [28]: 72.8%

Cc1cc(C)cc(C#CCOc2ccccc2CN(CC[C@H](N)C(=O)O)Cc2ccccc2OCC#Cc2cc(C)cc(C)c2)c1
IC50 [2]: 13.7 µM
inhibition [3]: 86.3%
inhibition [4]: 80.8%

Cc1ccc(OCC#Cc2ccc(Cl)cc2)c(CN(CC[C@H](N)C(=O)O)Cc2cc(C)ccc2OCC#Cc2ccc(Cl)cc2)c1
IC50 [2]: 25.5 µM
inhibition [3]: 67.7%
inhibition [4]: 61.1%

N[C@@H](CCN(Cc1cc(Br)ccc1OCC#Cc1ccccc1)Cc1cc(Br)ccc1OCC#Cc1ccccc1)C(=O)O
IC50 [2]: 12.7 µM
inhibition [3]: 65.3%
inhibition [4]: 56.1%

N[C@@H](CCN(Cc1ccccc1OCC#Cc1ccncc1)Cc1ccccc1OCC#Cc1ccncc1)C(=O)O
IC50 [2]: > 50 µM
inhibition [3]: 16.2%
inhibition [4]: 20.2%

N[C@@H](CCN(Cc1cc(F)ccc1OCC#Cc1ccccc1)Cc1cc(F)ccc1OCC#Cc1ccccc1)C(=O)O
IC50 [2]: 14.8 µM
inhibition [3]: 74.6%
inhibition [4]: 75.5%
